{"source": "a compilation of properties of binary mixtures (doi:10.1021/acs.jpcc.9b02625)", "test": "xn = mol fraction of the nth substance listed", "conditions": "303.15 K, 101 kPa", "data": [{"molecule": "O=S(=O)([N-]S(=O)(=O)C(F)(F)F)C(F)(F)F.[Li+]", "note": "+ O=S1(=O)CCCC1", "values": [{"measurement": "electrical conductivity", "setting": "x1 = 0.1", "value": 0.274, "unit": "S/m"}, {"measurement": "viscosity", "setting": "x1 = 0.1", "value": 28, "unit": "mPa·s"}, {"measurement": "electrical conductivity", "setting": "x1 = 0.111", "value": 0.262, "unit": "S/m"}, {"measurement": "viscosity", "setting": "x1 = 0.111", "value": 31, "unit": "mPa·s"}, {"measurement": "electrical conductivity", "setting": "x1 = 0.2", "value": 0.166, "unit": "S/m"}, {"measurement": "viscosity", "setting": "x1 = 0.2", "value": 90.3, "unit": "mPa·s"}, {"measurement": "electrical conductivity", "setting": "x1 = 0.25", "value": 0.104, "unit": "S/m"}, {"measurement": "viscosity", "setting": "x1 = 0.25", "value": 175, "unit": "mPa·s"}, {"measurement": "electrical conductivity", "setting": "x1 = 0.333", "value": 0.042, "unit": "S/m"}, {"measurement": "viscosity", "setting": "x1 = 0.333", "value": 627, "unit": "mPa·s"}]}]}
